This is an account of results in ChEMBL document CHEMBL5512630, “The mechanism of UNC-51-like kinase 1 and the applications of small molecule modulators in cancer treatment” (Eur J Med Chem, 2024).

Assay [1] addresses T1, Serine/threonine-protein kinase ULK1 (Homo sapiens) (UniProt O75385).
T1 sequence (whole entry): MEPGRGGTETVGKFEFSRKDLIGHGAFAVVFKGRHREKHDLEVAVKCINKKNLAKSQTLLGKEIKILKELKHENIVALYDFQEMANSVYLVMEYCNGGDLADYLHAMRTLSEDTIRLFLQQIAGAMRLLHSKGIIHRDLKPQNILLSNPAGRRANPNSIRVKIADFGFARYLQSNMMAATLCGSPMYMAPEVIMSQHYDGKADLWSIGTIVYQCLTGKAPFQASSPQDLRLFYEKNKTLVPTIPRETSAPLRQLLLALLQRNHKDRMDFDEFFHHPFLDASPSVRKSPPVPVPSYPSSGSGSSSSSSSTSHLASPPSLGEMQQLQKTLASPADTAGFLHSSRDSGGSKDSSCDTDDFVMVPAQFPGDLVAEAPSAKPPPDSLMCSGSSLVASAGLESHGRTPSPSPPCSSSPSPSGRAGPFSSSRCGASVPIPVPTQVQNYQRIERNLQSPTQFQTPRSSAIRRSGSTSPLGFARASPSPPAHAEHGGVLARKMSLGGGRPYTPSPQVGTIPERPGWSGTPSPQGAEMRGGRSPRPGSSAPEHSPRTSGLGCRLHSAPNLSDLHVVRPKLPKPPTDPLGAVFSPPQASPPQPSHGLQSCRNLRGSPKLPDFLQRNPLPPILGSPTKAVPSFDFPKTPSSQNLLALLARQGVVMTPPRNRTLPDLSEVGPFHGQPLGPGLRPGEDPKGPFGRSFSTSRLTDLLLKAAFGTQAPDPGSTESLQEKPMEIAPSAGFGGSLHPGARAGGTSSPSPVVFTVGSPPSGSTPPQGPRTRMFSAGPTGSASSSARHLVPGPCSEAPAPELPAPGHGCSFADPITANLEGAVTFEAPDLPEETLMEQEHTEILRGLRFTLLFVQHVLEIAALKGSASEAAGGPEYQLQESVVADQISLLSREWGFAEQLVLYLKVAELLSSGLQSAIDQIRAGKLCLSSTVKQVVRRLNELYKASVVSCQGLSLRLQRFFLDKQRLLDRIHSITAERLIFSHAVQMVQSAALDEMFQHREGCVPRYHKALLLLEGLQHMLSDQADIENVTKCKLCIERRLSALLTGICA
Kind of assay: Inhibition of ULK1 (unknown origin) relative to control. The settings on record: concentration not given here.

Assay [2] has as its system Non-small cell lung cancer cell line. Kind of assay: Antiproliferative activity against Non-small cell lung cancer cells (unknown origin). Format: functional, cell-based.

In the case of `O=c1c(O)c(-c2ccc(O)c(O)c2)oc2cc(O)ccc12`, the inhibition (usually the drop in the measured response relative to a control, in per cent) in assay [1] turned out to be 75%. In the case of `C=CC(=O)Nc1cc(Nc2nccc(-c3cn(C)c4ccccc34)n2)c(OC)cc1N(C)CCN(C)C` [OSIMERTINIB], the IC50 (usually the concentration needed to halve the response being measured) in assay [2] amounted to 41 nM. This counts as double-digit nanomolar.
